Measured values reported in article PMC2761036 (Analytical biochemistry, 2009).

Key:
Type in all cases: biochemical
Sfp [1] = molecular target: T1, Sfp (Bacillus subtilis, UniProt P39135); assay: HPLC enzyme kinetics
AcpS [2] = molecular target: T2, AcpS (Escherichia coli, UniProt P24224); assay: HPLC enzyme kinetics
Sfp [3] = molecular target: T1, Sfp; assay: FRET phosphopantetheinyl transferase assay with purified enzyme
AcpS [4] = molecular target: T2, AcpS; assay: as above

T1 sequence (P39135 whole entry): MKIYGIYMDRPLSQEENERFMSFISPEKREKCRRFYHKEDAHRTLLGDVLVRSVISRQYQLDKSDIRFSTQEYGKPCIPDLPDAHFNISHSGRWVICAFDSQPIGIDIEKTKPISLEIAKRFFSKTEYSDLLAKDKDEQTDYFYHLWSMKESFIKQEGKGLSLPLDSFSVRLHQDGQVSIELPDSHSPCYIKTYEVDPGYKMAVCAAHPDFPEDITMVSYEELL
T2 sequence (P24224 2-126): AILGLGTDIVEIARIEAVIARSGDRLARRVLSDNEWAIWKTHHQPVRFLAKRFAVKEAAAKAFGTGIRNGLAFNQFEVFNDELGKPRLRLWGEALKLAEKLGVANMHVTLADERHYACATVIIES

Molecule: TAMRA-mCoA [compound 12]
- Km (Sfp [1]): 6 µM
- Km (AcpS [2]): 22 µM

Molecule: Nc1ncnc2c1ncn2[C@@H]1O[C@H](COP(=O)(O)O)[C@@H](OP(=O)(O)O)[C@H]1O [compound 3, 3’-phosphoadenosine-5’-phosphate]
- IC50 (Sfp [3]): 12.3 ± 1.1 µM
- IC50 (AcpS [4]): 92 ± 6 µM
